Measurements taken from article PMC5820187 (Archives of toxicology, 2017).
Where two headings read alike, the source gives them in different places.

What was measured:
embryonic zebrafish [1] = conditions: for Bioactivity across the developmental toxicity assays (morphology, EPR, LPR): exposure 6-120 hpf
CYP1A protein expression = conditions: zebrafish, in vivo
embryonic zebrafish [2] = assay: Embryonic photomotor response; type: in vivo; conditions: 24 hpf embryos; for EPR effect: any phase
zebrafish larvae = assay: Larval photomotor response; type: in vivo; conditions: 120 hpf larvae; for LPR effect: at least one phase (light or dark)
[3] = static exposure 6-120 hpf, 0.1-50 μM, assessed at 24 and 120 hpf
[4] = hierarchical clustering of lowest effect levels, Fig 2

O=C1C=Cc2ccccc2C1=O [1,2-naphthoquinone]
Mortality and morphological effects (developmental toxicity endpoints, LELs) (embryonic zebrafish [1]; [3]): effects on mortality or morphology

O=C1C=CC(=O)c2cc3ccccc3cc21 [1,4-anthraquinone]
Bioactivity across the developmental toxicity assays (morphology, EPR, LPR) (embryonic zebrafish [1]; 0.1-50 μM): most toxic derivative tested | Concentrations with increased mortality (embryonic zebrafish [1]; static exposure 6-120 hpf): below 10 μM

Oc1cccc2c(O)cccc12 [1,5-dihydroxynaphthalene]
Mortality and morphological effects (developmental toxicity endpoints, LELs) (embryonic zebrafish [1]; [3]): effects on mortality or morphology

Cc1cccc2c(C)cccc12 [1,5-dimethylnaphthalene]
Tissue Type expressing CYP1A (CYP1A protein expression): Liver

Oc1cccc2ccccc12 [1-hydroxynaphthalene]
Mortality and morphological effects (developmental toxicity endpoints, LELs) (embryonic zebrafish [1]; zebrafish, in vivo): effects on mortality or morphology

Oc1cc2ccccc2cc1O [2,3-dihydroxynaphthalene]
EPR effect (embryonic zebrafish [2]): significant effects on EPR

Cc1ccc2cc(C)ccc2c1 [2,6-dimethylnaphthalene]
LPR effect (zebrafish larvae): All derivatives except 2,6-dimethylnaphthalene had LPR effects in at least one phase

CCc1ccc2c(c1)C(=O)c1ccccc1C2=O [2-ethylanthraquinone]
Mortality and morphological effects (developmental toxicity endpoints, LELs) (embryonic zebrafish [1]; zebrafish, in vivo): increased mortality | Number of developmental endpoints affected (embryonic zebrafish [1]; zebrafish, in vivo): 15 | LPR effect (zebrafish larvae): every derivative except 2-nitroanthracene and 2-ethylanthraquinone affected LPR behavior | Tissue Type expressing CYP1A (CYP1A protein expression): Yolk

Oc1ccc2ccccc2c1 [2-hydroxynaphthalene]
Mortality and morphological effects (developmental toxicity endpoints, LELs) (embryonic zebrafish [1]; zebrafish, in vivo): effects on mortality or morphology

O=[N+]([O-])c1ccc2cc3ccccc3cc2c1 [2-nitroanthracene]
LPR effect (zebrafish larvae): every derivative except 2-nitroanthracene and 2-ethylanthraquinone affected LPR behavior

O=[N+]([O-])c1cc2ccc3cccc4ccc(c1)c2c34 [2-nitropyrene]
Bioactivity across the developmental toxicity assays (morphology, EPR, LPR) (embryonic zebrafish [1]; 0.1-50 μM): only the cumulative ‘any’ endpoints

Cc1ccc2ccc3ccc(C)cc3c2c1 [3,6-dimethylphenanthrene]
LPR effect in the light phase (zebrafish larvae): effects on LPR in the light | EPR effect (embryonic zebrafish [2]): hypoactivity

c1ccc2cc3ccccc3cc2c1 [Anthracene]
Mortality and morphological effects (developmental toxicity endpoints, LELs) (embryonic zebrafish [1]; [3]): no observed morphology effects

O=C1c2ccccc2C(=O)c2ccccc21 [Anthraquinone]
Mortality and morphological effects (developmental toxicity endpoints, LELs) (embryonic zebrafish [1]; [3]): did not cause morphological effects

c1ccc2cc3c4ccccc4c4ccccc4c3cc2c1 [Dibenz[a,c]anthracene]
Developmental toxicity profile group (embryonic zebrafish [1]; [4]): Groups 1 and 2

c1ccc2c(c1)cc1ccc3c4ccccc4cc4ccc2c1c43 [Dibenzo[a,h]pyrene]
EPR effect in the Refractory period (embryonic zebrafish [2]): hypoactive response

c1ccc2c(c1)cc1ccc3cc4ccccc4c4ccc2c1c34 [Dibenzo[a,i]pyrene]
Mortality and morphological effects (developmental toxicity endpoints, LELs) (embryonic zebrafish [1]; [3]): no observed morphology effects

c1ccc2c(c1)cc1ccc3cccc4c5ccccc5c2c1c34 [Dibenzo[a,l]pyrene]
Developmental toxicity profile group (embryonic zebrafish [1]; [4]): Groups 1 and 2

c1ccc2c(c1)oc1ccccc12 [Dibenzofuran]
Tissue Type expressing CYP1A (CYP1A protein expression): Vasculature

c1ccc2c(c1)-c1cccc3cccc-2c13 [Fluoranthene]
Tissue Type expressing CYP1A (CYP1A protein expression): Vasculature, Yolk

c1ccc2[nH]ccc2c1 [Indole]
Tissue Type expressing CYP1A (CYP1A protein expression): Yolk

c1ccc2ccccc2c1 [Naphthalene]
LPR effect in the dark phase (zebrafish larvae): hyperactivity | LPR effect in the light phase (zebrafish larvae): hyperactivity

c1ccc2c(c1)ccc1ccccc12 [Phenanthrene]
LPR effect in the light phase (zebrafish larvae): hyperactivity | EPR effect (embryonic zebrafish [2]): did not induce mortality or morphology changes, EPR effects

c1cc2ccc3cccc4ccc(c1)c2c34 [Pyrene]
LPR effect (zebrafish larvae): significant LPR effects

c1ccc2ncccc2c1 [Quinoline]
Developmental toxicity profile group (embryonic zebrafish [1]; zebrafish, in vivo): Group 5 | EPR effect (embryonic zebrafish [2]): only had an observed effect on EPR

Cc1cccc2c1ccc1cc(C(C)C)ccc12 [Retene]
Tissue Type expressing CYP1A (CYP1A protein expression): Vasculature
